This is an account of results in patent publication US20240207308A1, “METHOD FOR CULTURING DENDRITIC CELLS” (NANOFAENTECH CO., LTD., priority 2021, published 2024).

Holding throughout (format): cell-based, mouse
Assay [1] has as its system spleen primary dendritic cells. As to the kind of experiment: ELISA of TNF-α / IL-12p40 secreted by cultured spleen primary dendritic cells. The settings on record: 24 hours. The protocol: In FIG. 12, spleen primary dendritic cells were dispensed at 1×10^6/mL and cultured for 24 hours, and then a concentration of TNF-α secreted from these cells in the culture medium was measured. As a result, it was confirmed that the secretion increased in a time-dependent manner. The concentration of TNF-α was measured at 450 nm using an ELISA kit (R&D systems) and a microplate analyzer (Synergy H1, Biotek). However, when dendritic cells were dispensed at 2×10^5/mL, CD86 expression was increased but TNF-α secretion was not increased (results not presented). * indicates statistical significance as P<0.05 or less compared with 3 h.
In FIG. 13, spleen primary dendritic cells were dispensed at 1×10^6/mL and cultured for 24 hours. […] Furthermore, when P4, P5 and P6 peptides were added at a concentration of 200 μg/mL, respectively, the secretion of TNF-α was not inhibited.
Therefore, it could be seen that fibronectin has a disadvantage of inhibiting the activation by stimulants although can maintain the inactivation of spleen dendritic cells. * indicates statistical significance as P<0.05 or less compared to -LPS.
In FIG. 27, an ELISA kit (R&D systems) was used to measure the concentration of TNF-α secreted into the culture medium when spleen primary dendritic cells were dispensed at 2×10^5/mL and cultured for 24 hours. The concentration was determined at 450 nm by a microplate analyzer (Synergy H1, Biotek).

Assay [2] relates to bone marrow-derived dendritic cells. As to the kind of experiment: CD86 expression of LPS-stimulated bone marrow-derived dendritic cells, flow cytometry. The settings on record: 24 hours, LPS 1 μg/mL. The protocol: Compared to spleen dendritic cells, when bone marrow-derived DCs (BMDCs) were stimulated with LPS, effects of the peptide combination and the addition of fibronectin were measured.
Mouse bone marrow-derived dendritic cells were obtained by differentiation from mouse bone marrow precursor cells. The femur and tibia of female C57BL/6 mouse were removed, and bone marrow was isolated using 10 mL of EDTA:BSS (Balanced Salt Solution) buffer containing 2% FBS. Red blood cells were removed with erythrocyte lysis buffer (Sigma-Aldrich), washed with EDTA:BSS buffer, followed by filtering cells using a 70 μm cell strainer (Falcon). Cells at 3×10^6/mL were dispensed in a 6-well plate, and interleukin-4 (20 ng/ml) (JW Creagene, Korea) and GM-CSF (20 ng/ml) (JW Creagene) were added and cultured for 7 days to induce differentiation. Differentiated dendritic cells were reacted with microbeads bound with CD11c antibody (eBioscience), was separated using CD11c Microbeads Ultrapure (MACS, Milteni Biotec), and then cultured.
In FIG. 17, while culturing 2×10^5/mL of bone marrow-derived dendritic cells for 24 hours, the peptides of P1, P2 and P3 were each added at a concentration of 200 μg/mL or fibronectin was added at a concentration of 200 μg/mL. […]
(In general: A flow cytometer gives signals particle by particle.)

Assay [3] concerns CD8+ T cells from OT-I transgenic mice. Nature of the assay: Proliferation of CFSE-stained OT-I CD8+ T cells co-cultured with OVA peptide-treated spleen dendritic cells. As to conditions: LPS-stimulated dendritic cells, co-culture 1:20, 4 days. How it is done: The spleen dendritic cells (2×10^6/mL) were self-activated in a 96-well plate for 24 hours, or self-activation was inhibited by adding a linker peptide, and then either not treated with LPS or stimulated with LPS for 24 hours. Dendritic cells were cultured with 10 μM ovalbumin (OVA) peptide SIINFEKL (InvivoGen, San Diego, California, USA) for 1 hour. CD8^+ T cells were isolated from OT-I transgenic mice using a CD8 T cell isolation kit (Miltenyi Biotec) and fluorescence-stained with 10 μM carboxyfluorescein succinimidyl ester (CFSE) for 10 minutes. After co-culture of CD8^+ T cells (1×10^5) and DCs (5×10^3) treated with OVA peptide at a ratio of 1:20 for 4 days, a proliferation level of T cells was measured in percentage of cells that are negative for CFSE fluorescence-staining.

Regarding fibronectin, the “secretion of TNF-α and IL-12p40” value in assay [1] (1 μg/mL LPS) is on record as “did not produce these cytokines”. The “secretion of TNF-α” value in assay [1] (cells 1×10^6/mL, no stimulant) was “hardly measured”. Further, in assay [1] (cells 2×10^5/mL, without LPS), the TNF-α secretion entry is recorded as “hardly occurred”. Further, in assay [2] (BMDC 2×10^5/mL, 200 μg/mL), the “CD86 expression by LPS” value is reported as “did not occur”. The “concentration from which the increase in CD86 expression by LPS was inhibited” value in assay [2] (BMDC) was ≥ 50 µg/mL. For the same substance, the “T cell proliferation (cells negative for CFSE)” value in assay [3] is “very weak ability to induce T cell proliferation”.
